This is an account of results in PMC5540273, “Progress towards a public chemogenomic set for protein kinases and a call for contributions” (PLoS ONE, 2017).

What all share (assay): KINOMEscan competition binding
In experiment [1] the target is T1, AURKC (Homo sapiens, UniProt Q9UQB9).
T1 sequence (Q9UQB9 1-309): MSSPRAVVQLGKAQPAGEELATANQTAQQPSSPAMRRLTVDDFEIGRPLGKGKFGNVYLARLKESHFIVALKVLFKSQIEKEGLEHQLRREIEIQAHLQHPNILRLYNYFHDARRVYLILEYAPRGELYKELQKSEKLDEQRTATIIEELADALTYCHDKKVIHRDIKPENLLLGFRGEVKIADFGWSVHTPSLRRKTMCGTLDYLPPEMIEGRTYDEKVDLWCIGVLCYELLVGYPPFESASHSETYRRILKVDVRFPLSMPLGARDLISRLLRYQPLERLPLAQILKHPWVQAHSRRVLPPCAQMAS
To be noted: read-out: %Inh AURKC.

Experiment [2] concerns the target T2, ASK1 (Homo sapiens, UniProt Q99683).
T2 sequence (Q99683 1-1374): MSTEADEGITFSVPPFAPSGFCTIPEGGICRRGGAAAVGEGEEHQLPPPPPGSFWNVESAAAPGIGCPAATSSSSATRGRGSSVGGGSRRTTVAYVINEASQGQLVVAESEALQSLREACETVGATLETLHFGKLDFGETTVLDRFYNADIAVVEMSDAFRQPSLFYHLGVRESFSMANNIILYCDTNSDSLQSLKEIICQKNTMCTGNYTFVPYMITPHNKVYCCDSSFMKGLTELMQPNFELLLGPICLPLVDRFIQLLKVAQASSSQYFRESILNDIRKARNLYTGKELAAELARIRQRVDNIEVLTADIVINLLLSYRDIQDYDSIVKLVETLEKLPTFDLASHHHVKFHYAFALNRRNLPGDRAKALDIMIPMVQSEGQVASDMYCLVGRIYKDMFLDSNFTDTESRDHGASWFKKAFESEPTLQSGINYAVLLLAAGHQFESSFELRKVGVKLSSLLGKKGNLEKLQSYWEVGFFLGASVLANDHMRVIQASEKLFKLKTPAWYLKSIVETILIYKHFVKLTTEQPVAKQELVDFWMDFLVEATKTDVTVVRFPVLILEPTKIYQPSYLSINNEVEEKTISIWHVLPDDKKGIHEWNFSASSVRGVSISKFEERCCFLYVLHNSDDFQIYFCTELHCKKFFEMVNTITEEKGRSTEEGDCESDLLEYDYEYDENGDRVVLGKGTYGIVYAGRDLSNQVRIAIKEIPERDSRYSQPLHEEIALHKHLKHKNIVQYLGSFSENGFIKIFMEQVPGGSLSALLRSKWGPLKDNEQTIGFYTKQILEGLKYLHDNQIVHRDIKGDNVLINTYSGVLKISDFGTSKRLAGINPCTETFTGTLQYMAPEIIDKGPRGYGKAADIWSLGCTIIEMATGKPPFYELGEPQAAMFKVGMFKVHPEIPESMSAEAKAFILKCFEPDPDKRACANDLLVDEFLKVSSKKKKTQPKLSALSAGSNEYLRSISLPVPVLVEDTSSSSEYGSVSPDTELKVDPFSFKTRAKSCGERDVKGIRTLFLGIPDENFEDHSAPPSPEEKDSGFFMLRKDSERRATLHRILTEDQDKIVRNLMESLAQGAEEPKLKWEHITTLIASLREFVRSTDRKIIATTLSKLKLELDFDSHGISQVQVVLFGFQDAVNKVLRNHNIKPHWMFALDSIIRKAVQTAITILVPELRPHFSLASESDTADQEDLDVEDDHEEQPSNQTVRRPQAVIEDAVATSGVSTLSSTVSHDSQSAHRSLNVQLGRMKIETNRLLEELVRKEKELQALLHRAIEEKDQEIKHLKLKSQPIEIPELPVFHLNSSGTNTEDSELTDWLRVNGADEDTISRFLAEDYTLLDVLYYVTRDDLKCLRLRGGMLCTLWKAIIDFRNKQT
The note with it: read-out: %Inh ASK1.

Experiment [3] concerns the target AKT2 (Homo sapiens, UniProt P31751). To be noted: read-out: %Inh AKT2.
The target in experiment [4] is T3, HUNK (Homo sapiens, UniProt P57058).
T3 sequence (P57058 1-714): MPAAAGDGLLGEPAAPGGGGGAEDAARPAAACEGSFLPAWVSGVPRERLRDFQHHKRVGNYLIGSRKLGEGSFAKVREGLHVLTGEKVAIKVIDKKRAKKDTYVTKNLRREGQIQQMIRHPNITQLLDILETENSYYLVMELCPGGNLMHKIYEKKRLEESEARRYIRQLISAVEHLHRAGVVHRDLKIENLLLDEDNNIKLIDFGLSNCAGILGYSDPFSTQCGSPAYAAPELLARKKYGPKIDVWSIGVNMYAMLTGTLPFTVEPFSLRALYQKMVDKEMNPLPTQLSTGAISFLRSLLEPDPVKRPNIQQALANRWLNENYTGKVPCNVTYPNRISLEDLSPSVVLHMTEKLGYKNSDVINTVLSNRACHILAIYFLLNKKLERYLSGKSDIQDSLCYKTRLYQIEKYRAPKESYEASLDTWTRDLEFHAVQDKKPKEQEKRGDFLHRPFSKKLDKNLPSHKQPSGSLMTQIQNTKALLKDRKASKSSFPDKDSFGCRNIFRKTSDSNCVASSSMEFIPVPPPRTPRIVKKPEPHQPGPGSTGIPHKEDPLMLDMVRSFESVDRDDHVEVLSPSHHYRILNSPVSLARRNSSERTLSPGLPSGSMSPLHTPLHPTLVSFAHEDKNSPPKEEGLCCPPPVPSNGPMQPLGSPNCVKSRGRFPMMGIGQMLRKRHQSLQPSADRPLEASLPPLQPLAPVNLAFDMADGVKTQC
To be noted: read-out: %Inh HUNK.

Sequence of AKT2 (P31751 whole entry): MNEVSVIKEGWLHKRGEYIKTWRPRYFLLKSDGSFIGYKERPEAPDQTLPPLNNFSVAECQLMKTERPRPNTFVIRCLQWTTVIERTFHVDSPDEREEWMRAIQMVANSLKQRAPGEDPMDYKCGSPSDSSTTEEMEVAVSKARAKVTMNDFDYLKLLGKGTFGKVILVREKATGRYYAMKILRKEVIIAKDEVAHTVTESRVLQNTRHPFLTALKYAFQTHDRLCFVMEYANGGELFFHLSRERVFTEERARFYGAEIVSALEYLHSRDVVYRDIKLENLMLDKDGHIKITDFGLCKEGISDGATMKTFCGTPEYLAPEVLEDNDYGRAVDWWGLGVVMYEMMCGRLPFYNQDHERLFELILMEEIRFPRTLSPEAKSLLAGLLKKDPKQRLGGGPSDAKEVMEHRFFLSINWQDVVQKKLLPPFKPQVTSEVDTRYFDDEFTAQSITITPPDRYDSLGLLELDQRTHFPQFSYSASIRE

As for `O=c1cc(N2CCOCC2)nc2n(Cc3cccc(Cl)c3Cl)c(C3CC3)nn12` [UNC10225469A], the inhibition at 1 µM in experiment [1], in experiment [2], in experiment [3] and in experiment [4] was 0% each time.
For the molecule `COc1cccc(OC)c1C(=O)Nc1cccc(-c2nn3ccccc3c2-c2ccnc(Nc3cccc(F)c3)n2)c1` [UNC10225310A], the inhibition at 1 µM in experiment [1] worked out at 70%; in experiment [2], 22%; in experiment [3] it was 0%; in experiment [4], 15%.
As for `CS(=O)(=O)Cc1ccc(Nc2nccc(-c3c(-c4cccc(NC(=O)C5CCCCC5)c4)nn4ncccc34)n2)cc1` [UNC10225159A], the inhibition at 1 µM in experiment [1] stood at 49%; in experiment [2], 0%; in experiment [3], 4%; in experiment [4], 7%.
On the same counts, the results for `Cc1ccc(NC(=O)Nc2cccc(C(F)(F)F)c2)cc1` [UNC10225187A] are 19%, 20%, 3% and 0%.
On the same counts, the results for `Cn1cc(-c2cnc(N)c3c(-c4ccc5c(c4)CCN5C(=O)Cc4ccccc4)csc23)cn1` [UNC10225012A] are 92.2%, 21%, 0% and 0%.
